From patent US4576934A, “Antihypertensive dihydropyridine-5-phosphonic acid cyclic esters” (Nissan Chemical Industries Ltd., priority 1983, dated 1986)
Where a name gives a salt, the structure may show the parent alone.

What was measured:
[1] = test system: taenia caecum of guinea pig; assay: Calcium antagonistic effects: relaxation of CaCl2-induced contraction of K+-depolarized taenia caecum; type: cell-based; details: Cavia porcellus, relative to maximum relaxation by 10^-4 M papaverine, 10 mM CaCl2, 37° C., read-out: pID50 (pID50 = -log [ID50]), concentration producing 50% relaxation (converted)
Experimental: (1) Calcium antagonistic effects
Then, the preparation was depolarized by a K^+ rich solution (NaCl: 40 mM, KCl: 100 mM). After 10-20 minutes equilibration period, 10 mM of CaCl2 was added to the bathing solution. The contraction was produced, and then the test compound applied cumulatively.

[2] = test system: male spontaneously hypertensive rat (SHR); assay: Antihypertensive effects: systolic blood pressure after oral administration to SHR, tail cuff method; type: in vivo; details: read-out: Antihypertensive effects, Maximum decrease (%)
Experimental: (2) Antihypertensive effects
After oral administration of the test compound dissolved in a H2 O-PEG 400 solvent mixture (H2 O:PEG 400 (w/w)=1:3) to the male spontaneously hypertensive rat (SHR), the systolic blood pressure was measured by a tail cuff method. Prior to the measurement, rats were warmed at 50° C. for five minutes.

[3] = Acute toxicity test (LD50) in mice; details: mouse, in vivo, male ddY mice, after seven days
Experimental: Test 2: Acute toxicity test
ddY mice (.male., 4 weeks old) were divided into groups of five mice and the test compound dissolved in purified water was administered orally (5% solution) or intraperitoneally (1% solution) to the male ddY mice.
After seven days, LD50 values were calculated from the dead […] recorded in the individual dosage groups by the method of Litchfield-Wilcoxon.

SMILES: COc1ccc([C@@H]2Sc3ccccc3N(CCN(C)C)C(=O)[C@@H]2OC(C)=O)cc1 [Diltiazem, reference compound]
- EC50 [1]: 275 nM
- inhibition in vivo at 60 mg/kg ([2]; dose 60 mg/kg): 10%

SMILES: CC1=C(C(=O)OCCN(C)Cc2ccccc2)C(c2cccc([N+](=O)[O-])c2)C(P2(=O)OC(C)CCC(C)O2)=C(C)N1 (stereo not drawn) [Hydrochloride of Example 1]
- EC50 [1]: 7.08 nM
- inhibition in vivo at 20 mg/kg [2]: 50%

SMILES: CC1=C(C(=O)OCCN(C)Cc2ccccc2)C(c2ccccc2C(F)(F)F)C(P2(=O)OC(C)CCC(C)O2)=C(C)N1 (stereo not drawn) [Hydrochloride of Example 2]
- EC50 [1]: 5.89 nM
- inhibition in vivo at 20 mg/kg [2]: 45%

SMILES: CC1=C(C(=O)OCCN(C)Cc2ccccc2)C(c2cccc(Cl)c2)C(P2(=O)OC(C)CCC(C)O2)=C(C)N1 (stereo not drawn) [Hydrochloride of Example 3]
- EC50 [1]: 3.98 nM
- inhibition in vivo at 10 mg/kg [2]: 15%

SMILES: CC1=C(C(=O)OCCN(C)Cc2ccccc2)C(c2ccccc2Cl)C(P2(=O)OC(C)CCC(C)O2)=C(C)N1 (stereo not drawn) [Hydrochloride of Example 4]
- EC50 [1]: 4.9 nM
- inhibition in vivo at 10 mg/kg [2]: 15%

SMILES: CC1=C(C(=O)OCCN(C)Cc2ccccc2)C(c2cccc([N+](=O)[O-])c2)C(P2(=O)OC(C)CC(C)O2)=C(C)N1 (stereo not drawn) [Hydrochloride of Example 5]
- EC50 [1]: 2.45 nM
- inhibition in vivo at 20 mg/kg [2]: 50%

SMILES: CC1=C(C(=O)OCCN(C)Cc2ccccc2)C(c2ccccc2C(F)(F)F)C(P2(=O)OC(C)CC(C)O2)=C(C)N1 (stereo not drawn) [Hydrochloride of Example 6]
- EC50 [1]: 4.47 nM
- LD50 at 168 h ([3]; ip, i.p. (1% solution)): 17 mg/kg
- LD50 at 168 h ([3]; po, p.o. (5% solution)): 53 mg/kg
- inhibition in vivo at 5 mg/kg ([2]; dose 5 mg/kg): 37%

SMILES: CC1=C(C(=O)OCCN(C)Cc2ccccc2)C(c2cccc(Cl)c2)C(P2(=O)OC(C)CC(C)O2)=C(C)N1 (stereo not drawn) [Hydrochloride of Example 7]
- EC50 [1]: 5.5 nM
- LD50 at 168 h ([3]; ip, i.p. (1% solution)): 23 mg/kg
- LD50 at 168 h ([3]; po, p.o. (5% solution)): 74 mg/kg
- inhibition in vivo at 20 mg/kg [2]: 49%

SMILES: CC1=C(C(=O)OCCN(C)Cc2ccccc2)C(c2ccccc2Cl)C(P2(=O)OC(C)CC(C)O2)=C(C)N1 (stereo not drawn) [Hydrochloride of Example 8]
- EC50 [1]: 2.82 nM
- inhibition in vivo at 10 mg/kg [2]: 47%

SMILES: CC1=C(C(=O)OCCN2CCN(C(c3ccccc3)c3ccccc3)CC2)C(c2cccc([N+](=O)[O-])c2)C(P2(=O)OC(C)CC(C)O2)=C(C)N1 (stereo not drawn) [Hydrochloride of Example 9]
- EC50 [1]: 29.5 nM
- inhibition in vivo at 20 mg/kg [2]: 36%

SMILES: CC1=C(C(=O)OCCN2CCN(C(c3ccccc3)c3ccccc3)CC2)C(c2ccccc2C(F)(F)F)C(P2(=O)OC(C)CC(C)O2)=C(C)N1 (stereo not drawn) [Hydrochloride of Example 10]
- EC50 [1]: 57.5 nM
- inhibition in vivo at 20 mg/kg [2]: 46%

SMILES: CC1=C(C(=O)OCCN2CCN(C(c3ccccc3)c3ccccc3)CC2)C(c2ccccc2Cl)C(P2(=O)OC(C)CC(C)O2)=C(C)N1 (stereo not drawn) [Hydrochloride of Example 11]
- EC50 [1]: 24.5 nM
- inhibition in vivo at 10 mg/kg [2]: 29%

SMILES: CC1=C(C(=O)OCCN(C)Cc2ccccc2)C(c2cccc([N+](=O)[O-])c2)C(P2(=O)OCCC(C)O2)=C(C)N1 (stereo not drawn) [Hydrochloride of Example 12]
- EC50 [1]: 2.57 nM
- inhibition in vivo at 10 mg/kg [2]: 18%

SMILES: CC1=C(C(=O)OCCN(C)Cc2ccccc2)C(c2ccccc2C(F)(F)F)C(P2(=O)OCCC(C)O2)=C(C)N1 (stereo not drawn) [Hydrochloride of Example 13]
- EC50 [1]: 12.3 nM
- inhibition in vivo at 10 mg/kg [2]: 39%

SMILES: CC1=C(C(=O)OCCN(C)Cc2ccccc2)C(c2cccc(Cl)c2)C(P2(=O)OCCC(C)O2)=C(C)N1 (stereo not drawn) [Hydrochloride of Example 14]
- EC50 [1]: 3.02 nM
- inhibition in vivo at 10 mg/kg [2]: 14%

SMILES: CC1=C(C(=O)OCCN(C)Cc2ccccc2)C(c2ccccc2Cl)C(P2(=O)OCCC(C)O2)=C(C)N1 (stereo not drawn) [Hydrochloride of Example 15]
- EC50 [1]: 3.24 nM
- inhibition in vivo at 10 mg/kg [2]: 38%

SMILES: CC1=C(C(=O)OCCN(C)Cc2ccccc2)C(c2cccc([N+](=O)[O-])c2)C(P2(=O)OCC(C)(C)CO2)=C(C)N1 (stereo not drawn) [Hydrochloride of Example 16]
- EC50 [1]: 3.55 nM
- inhibition in vivo at 10 mg/kg [2]: 21%

SMILES: CC1=C(C(=O)OCCN(C)Cc2ccccc2)C(c2ccccc2C(F)(F)F)C(P2(=O)OCC(C)(C)CO2)=C(C)N1 (stereo not drawn) [Hydrochloride of Example 17]
- EC50 [1]: 4.27 nM
- inhibition in vivo at 20 mg/kg [2]: 42%

SMILES: CC1=C(C(=O)OCCN(C)Cc2ccccc2)C(c2cccc(Cl)c2)C(P2(=O)OCC(C)(C)CO2)=C(C)N1 (stereo not drawn) [Hydrochloride of Example 18]
- EC50 [1]: 4.47 nM
- inhibition in vivo at 10 mg/kg [2]: 17%

SMILES: CC1=C(C(=O)OCCN(C)Cc2ccccc2)C(c2ccccc2Cl)C(P2(=O)OCC(C)(C)CO2)=C(C)N1 (stereo not drawn) [Hydrochloride of Example 19]
- EC50 [1]: 5.13 nM
- inhibition in vivo at 10 mg/kg [2]: 30%

SMILES: COC(=O)C1=C(C)NC(C)=C(P2(=O)OCCC(C)O2)C1c1ccccc1C(F)(F)F (stereo not drawn) [Hydrochloride of Example 20]
- EC50 [1]: 2.04 nM
- inhibition in vivo at 20 mg/kg [2]: 32%

SMILES: COC(=O)C1=C(C)NC(C)=C(P2(=O)OC(C)CC(C)O2)C1c1ccccc1C(F)(F)F (stereo not drawn) [Hydrochloride of Example 21]
- EC50 [1]: 1.91 nM
- inhibition in vivo at 20 mg/kg [2]: 35%

SMILES: COC(=O)C1=C(C)NC(C)=C(C(=O)OCCN(C)Cc2ccccc2)C1c1cccc([N+](=O)[O-])c1 (stereo not drawn) [Nicardipine, reference compound]
- EC50 [1]: 0.417 nM
- LD50 at 168 h ([3]; ip, i.p. (1% solution)): 166 mg/kg
- LD50 at 168 h ([3]; po, p.o. (5% solution)): 561 mg/kg
- inhibition in vivo at 20 mg/kg [2]: 34%

SMILES: COC(=O)C1=C(C)NC(C)=C(C(=O)OC)C1c1ccccc1[N+](=O)[O-] [Nifedipine, reference compound]
- EC50 [1]: 2.88 nM
- inhibition in vivo at 10 mg/kg [2]: 26%
